This note sets out measurements from PubChem BioAssay (NCI).

Values joined by “and” are separate entries in the source; they are usually repeats but may differ in a detail not shown here. Equal values may be shown once.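 Five compound concentrations were applied to cells in 96-well plates for 48 hours; endpoints were derived by simple linear interpolation of the resulting dose-response curve. TGI: concentration producing complete growth inhibition.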 Numbered stars: 1 amine (or outer) side, 2 acyl side, 3 side chain; on linkers, the order of the positions; unused ones are H or OH. Bridge positions count the residues as written; N and C are the ends. Square brackets hold non-standard residues; d marks the D form. Peptide text beside a SMILES is read from it. I, II: the chains in the order shown. Actinocin(1to9) = Cc1c2oc3c(C)ccc(C(=O)[*:2])c3nc-2c(C(=O)[*:1])c(N)c1=O; NMeV = CN[CH](C(=O)O)C(C)C; Sar = CNCC(=O)O

Among the test systems are SW-620 colon; SK-MEL-2 melanoma; HCT-116 colon; SF-539 CNS; COLO 205 colon; MOLT-4 leukemia; HCT-15 colon; SR leukemia; 786-0 renal; KM12 colon; UO-31 renal; ACHN renal; DU-145 prostate; SF-268 CNS; MDA-N; A549 NSCLC; HOP-62 NSCLC; UACC-257 melanoma; SK-OV-3 ovarian; CAKI-1 renal.
Experiment in all cases: inhibition of tumour cell growth, NCI panel, 48 h

Take `OCC1(CNc2cc(Cl)ncn2)CCC1`: the TGI in the test with SW-620 colon, with SK-MEL-2 melanoma, with HCT-116 colon, with SF-539 CNS, in the test with COLO 205 colon and with MOLT-4 leukemia was greater than 100 µM throughout. Moreover, the TGI in the test on HCT-15 colon, in the test on SR leukemia, in the test with 786-0 renal, in the test on KM12 colon, in the test on UO-31 renal and with ACHN renal was greater than 100 µM each time. Also, the TGI in the test with DU-145 prostate, in the test on SF-268 CNS, with MDA-N, in the test with A549 NSCLC, in the test on HOP-62 NSCLC and with UACC-257 melanoma was greater than 100 µM each time.
As for `O=C(O)CCCN=C(C(=NCCCC(=O)O)c1ccccc1)c1ccccc1`, the TGI in the test with SW-620 colon, in the test on SK-OV-3 ovarian, in the test on SK-MEL-2 melanoma, in the test with HCT-116 colon, in the test on COLO 205 colon and in the test on MOLT-4 leukemia was greater than 100 µM each time. The TGI in the test on HCT-15 colon, in the test with SR leukemia, in the test on 786-0 renal, with KM12 colon, in the test on UO-31 renal and in the test with ACHN renal was greater than 100 µM in each case. Besides, the TGI in the test with DU-145 prostate, in the test on SF-268 CNS, with MDA-N, in the test on A549 NSCLC, in the test on HOP-62 NSCLC and in the test on UACC-257 melanoma was greater than 100 µM in each case.
`O=C(NC(Cc1ccccc1)P(=O)(O)c1ccccc1)OCc1ccccc1` (configuration not stated): the TGI in the test on SW-620 colon, with SK-OV-3 ovarian, in the test with CAKI-1 renal, with HCT-116 colon, in the test with COLO 205 colon and in the test with MOLT-4 leukemia was greater than 100 µM each time. Moreover, the TGI in the test with HCT-15 colon, in the test with SR leukemia, in the test with 786-0 renal, with KM12 colon, in the test on UO-31 renal and in the test on ACHN renal was greater than 100 µM in each case. Further, the TGI in the test with DU-145 prostate, in the test on SF-268 CNS, in the test with MDA-N, in the test on A549 NSCLC, in the test with HOP-62 NSCLC and with UACC-257 melanoma was greater than 100 µM throughout.
As to `COc1ccc(NC(C)=O)cc1N1C(=O)/C(=C\c2cccc(Oc3ccccc3)c2)SC1c1ccccc1` (configuration not stated), the TGI in the test on SW-620 colon is 71.1 µM; in the test with SK-OV-3 ovarian, greater than 100 µM; in the test on SK-MEL-2 melanoma, greater than 100 µM; with CAKI-1 renal, greater than 100 µM; with HCT-116 colon, 23.8 µM; with COLO 205 colon, 39.9 µM. The TGI was 82.6 µM with MOLT-4 leukemia; greater than 100 µM in the test on HCT-15 colon; 29.4 µM in the test with SR leukemia; greater than 100 µM with 786-0 renal; greater than 100 µM with KM12 colon; greater than 100 µM with UO-31 renal. Besides, the TGI in the test with ACHN renal is greater than 100 µM; in the test on DU-145 prostate, greater than 100 µM; with MDA-N it was 81.9 µM; with A549 NSCLC, greater than 100 µM; in the test with HOP-62 NSCLC, greater than 100 µM; in the test on UACC-257 melanoma, greater than 100 µM.
As for `CCC(C)C1NC(=O)C(NC(=O)c2c3nc4c(C(=O)NC5C(=O)NC(C(C)C)C(=O)N6CCCC6C(=O)N(C)CC(=O)N(C)C(C(C)C)C(=O)OC5C)ccc(C)c4oc-3c(C)c(=O)c2N)C(C)OC(=O)C(C(C)C)N(C)C(=O)CN(C)C(=O)C2CCCN2C1=O` (configuration not stated) (I: TIP[Sar][NMeV] / II: TVP[Sar][NMeV]; ester I:1-I:C, II:1-II:C; linker I:N-II:N via Actinocin(1to9); configuration not given here), the TGI was 13.2 µM in the test with SK-OV-3 ovarian; 0.111 µM in the test with SK-MEL-2 melanoma; 4.8 µM with HCT-116 colon; 0.107 µM in the test with SF-539 CNS; 0.0163 µM with COLO 205 colon; 0.0667 µM and 0.0163 µM in the test on MOLT-4 leukemia. The TGI with HCT-15 colon is 14.2 µM; in the test on SR leukemia, 0.404 µM; in the test with 786-0 renal, 0.141 µM and 0.669 µM; in the test with KM12 colon, 0.191 µM; with ACHN renal, 0.0377 µM and 0.0261 µM; with DU-145 prostate it was 0.71 µM. In addition, the TGI in the test with MDA-N was determined as 0.0244 µM; in the test with A549 NSCLC, 13.9 µM; with UACC-257 melanoma, 0.0266 µM.
For `COc1ccc(-c2cc(-c3ccccc3)nc(N)n2)c(O)c1`, the TGI in the test with SW-620 colon, in the test on SK-OV-3 ovarian, in the test with SK-MEL-2 melanoma, in the test with HCT-116 colon, in the test with SF-539 CNS and in the test with COLO 205 colon was greater than 100 µM each time. Also, the TGI with MOLT-4 leukemia was greater than 100 µM; with HCT-15 colon it was greater than 100 µM; in the test with SR leukemia, greater than 26.2 µM; in the test on 786-0 renal, greater than 100 µM; in the test with KM12 colon, greater than 100 µM; with UO-31 renal, greater than 23.3 µM. The TGI in the test with ACHN renal, in the test on SF-268 CNS, with MDA-N, in the test on A549 NSCLC, in the test on HOP-62 NSCLC and in the test with UACC-257 melanoma was greater than 100 µM in each case.
With `O=C1Cc2c([nH]c3cc(Br)ccc23)-c2ccccc2N1`, the TGI in the test on SW-620 colon amounted to 52.5 µM; in the test with SK-OV-3 ovarian, 58.8 µM; in the test with HCT-116 colon it was 15.9 µM; in the test on SF-539 CNS it was 37.3 µM; in the test with COLO 205 colon it was 93.8 µM; in the test with MOLT-4 leukemia, 40.9 µM. In addition, the TGI with HCT-15 colon was 25.2 µM; in the test on SR leukemia, greater than 100 µM; in the test with 786-0 renal, greater than 100 µM; in the test with KM12 colon it was greater than 100 µM; with UO-31 renal, 38.1 µM; in the test with ACHN renal it was 64.7 µM. For the same compound, the TGI in the test with DU-145 prostate is 79.7 µM; with SF-268 CNS, 89.9 µM; in the test on MDA-N it was greater than 100 µM; in the test with A549 NSCLC, 64.1 µM; in the test on HOP-62 NSCLC, 26 µM.
For the compound `CCCC(=O)OC1=C(c2ccccc2)Sc2ccccc2-n2cccc21`, the TGI in the test with SW-620 colon, in the test with SK-OV-3 ovarian, with CAKI-1 renal, in the test with COLO 205 colon, with MOLT-4 leukemia and with HCT-15 colon was greater than 10 µM each time. Moreover, the TGI in the test on SR leukemia, in the test on 786-0 renal, in the test with KM12 colon, with DU-145 prostate, in the test on SF-268 CNS and in the test on MDA-N was greater than 10 µM throughout. The TGI with A549 NSCLC, with HOP-62 NSCLC and in the test with UACC-257 melanoma was greater than 10 µM throughout.
